Target: T1, AKT1 (PKB alpha) (Homo sapiens, UniProt P31749)
T1 construct: purchased Thermo Fisher Scientific (Life Technologies) SelectScreen
Test: SelectScreen Z'LYTE
Assay type: biochemical
How it was run: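 NU5455 was profiled across the SelectScreen Broad panel of kinase activity and binding assays. Z'LYTE reactions such as CSF1R ran at apparent Km ATP, while the Adapta CAMK1 assay used ATP listed as 10. Values are given as percent.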

T1 sequence (P31749 whole entry): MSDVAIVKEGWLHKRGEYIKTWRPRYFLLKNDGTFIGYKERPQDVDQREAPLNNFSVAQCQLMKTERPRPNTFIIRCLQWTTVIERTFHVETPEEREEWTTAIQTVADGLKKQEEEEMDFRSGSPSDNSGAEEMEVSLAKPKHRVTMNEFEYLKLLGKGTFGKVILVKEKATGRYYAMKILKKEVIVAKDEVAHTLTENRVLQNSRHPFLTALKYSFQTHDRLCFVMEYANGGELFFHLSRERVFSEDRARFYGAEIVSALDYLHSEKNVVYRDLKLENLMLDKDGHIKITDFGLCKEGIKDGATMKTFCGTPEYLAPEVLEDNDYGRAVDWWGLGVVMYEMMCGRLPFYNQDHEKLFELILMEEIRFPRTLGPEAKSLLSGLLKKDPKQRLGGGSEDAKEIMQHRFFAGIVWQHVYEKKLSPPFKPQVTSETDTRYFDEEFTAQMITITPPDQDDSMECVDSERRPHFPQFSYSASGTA

`CN(C(=O)CN1CCOCC1)c1ccc2sc3c(-c4cccc5c(=O)cc(N6CC7CCC(C6)O7)oc45)cccc3c2c1` [NU5455] showed an inhibition at 1 µM of 0.5%.
